According to US10363239B2, “Method for inhibiting growth of cancer cells” (Pain Therapeutics, Inc., priority 2013, dated 2019):

Legend:
[1] = system: pS2448mTOR, pS473Akt, pY/pT-ERK2 in melanoma cells; assay: Activated (phosphorylated) mTOR, Akt and ERK2 levels (immunoprecipitation, Western blotting); assay type: cell-based, human; conditions: 0.1-5 nM; 4 days
Procedure: FIG. 11A through FIG. 11C illustrate the effect of contact with Compound C0105 on the levels of activated (phosphorylated) mTOR (pS^2448mTOR), Akt (pS^473Akt) and ERK2 (pY/pT-ERK2) in melanoma cells. Cells were treated with vehicle and 0.1-5 nM Compound C0105 for 4 days. Cells were washed, solubilized and the resultant cell lysate was immunoprecipitated with anti-mTOR, -Akt or -ERK2. The levels of pS^2448mTOR, pS^473Akt, pY/pTERK2 in the respective anti-mTOR, -Akt, and -ERK2 immunoprecipitates were determined by Western blotting. The density of protein bands was measured by densitometric scanning. […] N=4. *p<0.01 compared to vehicle (open bars). […]
(§1) The cell lysates were diluted 5-fold with immunoprecipitation buffer and immunoprecipitated with anti-FLNA, -Akt, -mTOR and -ERK2 as described previously [Talbot et al., J Clin Inv 122(4):1-23 (2012); Wang et al., J Neurosci 32(29):9773-9784 (2012)]. The levels of FLNA linkages, activated phosphorylated Akt (pS^473 and pT^308), phosphorylated mTOR (pS^2448) and phosphorylated ERK2 (pY/pT) were determined in anti-FLNA, -Akt, -mTOR and -ERK2 immunoprecipitates by Western blotting with appropriate antibodies directed against PTEN, PP2A, K-RAS, ras-GAP (FLNA linkages), pS^473Akt, pT^308Akt, pS^2448mTOR and pY/pT ERK2 (activation of Akt, mTOR and ERK2).

[2] = system: GTP-bound K-ras in glioblastoma cell line (U87); assay: Active K-ras (GTP-bound K-ras) Raf1 RBD pull-down assay; assay type: cell-based, human; conditions: 0.1, 0.5, 1 and 5 nM; 4-day treatment
Procedure: (§2) FIGS. 31A and 31B illustrate the effects of illustrative Compound C0105 on levels of active K-ras (GTP-bound K-ras), assessed using the agarose bead-bound Raf1 RBD pull-down assay in melanoma, two different pancreatic cancerous cell lines (MiaPaCa2 and BxPc3) and a glioblastoma cell line (U87). The cells were treated (contacted) with zero (vehicle), 0.1, 0.5, 1 and 5 nM Compound C0105 as previously discussed. The thus obtained GTP-bound K-ras was subjected to Western blotting using anti-ras antibodies for identification, the blot densities determined and statistically analyzed as discussed previously.
(§3) In a separate series of studies, the level of active K-RAS (GTP-bound K-RAS) was determined by precipitation using Raf RBD-conjugated agarose beads from 100 μg of lysates of cancer cells (prepared as described above) following 4-day treatment with varying concentrations of Compound C0105. To ascertain even loading, actin in the cell lysates was immunoprecipitated with goat anti-actin. The precipitates were collected by centrifugation, washed and the active K-RAS and actin eluted by boiling for 5 min in 1×SDS-PAGE. The levels of active K-RAS and actin in 50 μg of cell lysates were size-fractionated on 12% SDS-PAGE, electrophorectically transferred to nitrocellulose membranes and determined by Western blotting with specific monoclonal antibodies against K-RAS and actin.

[3] = system: GTP-bound K-ras in MiaPaCa2 cells; assay: as above; assay type: cell-based, human; conditions: 0.1, 0.5, 1 and 5 nM; 4-day treatment
Procedure: as §2, §3

[4] = system: GTP-bound K-ras in BxPc3 cells; assay: as above; assay type: cell-based, human; conditions: 0.1, 0.5, 1 and 5 nM; 4-day treatment
Procedure: as §2, §3

[5] = system: GTP-bound K-ras in melanoma cells; assay: as above; assay type: cell-based, human; conditions: 0.1, 0.5, 1 and 5 nM; 4-day treatment
Procedure: as §2, §3

[6] = system: pS2448mTOR, pS473Akt, pY/pT-ERK2 in HPEC; assay: Activated (phosphorylated) mTOR, Akt and ERK2 levels (immunoprecipitation, Western blotting); assay type: cell-based, human; conditions: 0.1-5 nM; 4 days
Procedure: (§4) Cells were treated with vehicle and 0.1-5 nM C0105 for 4 days. Cells were washed, solubilized and the resultant cell lysate was immunoprecipitated with anti-mTOR, -Akt or -ERK2. The levels of pS^2448mTOR, pS^473Akt, pY/pTERK2 in the respective anti-mTOR, -Akt, and -ERK2 immunoprecipitates were determined by Western blotting (not shown). The density of protein bands was measured by densitometric scanning. […] FIGS. 13C and 13G and FIGS. 13D and 13H show similarly obtained data for immunoprecipitates from HMEC and HPEC cells, respectively. Cell treatments and data handling were as discussed in FIG. 12.
(§5) To study the effect of Compound C0105 on pS^2152FLNA levels, FLNA linkages to key regulators including protein phosphatases as well as activated Akt (pS^473-, pT^308-Akt), mTOR ([…]) and ERK (pY/pT-ERK) levels, the cancer and normal cells were cultured to approximately 90% confluency and treated with vehicle or varying concentrations of Compound C0105. The cells were washed with warm phosphate-buffered saline (PBS), pH 7.2, dissociated, homogenized by sonication and solubilized using 0.5% NP-40 (nonoxynol 40), 0.2% sodium cholate and 0.5% digitonin for 1 hour at 4° C.
as §1

[7] = system: pS2448mTOR, pS473Akt, pY/pT-ERK2 in HTB-22 cells; assay: as above; assay type: cell-based, human; conditions: 0.1-5 nM; 4 days
Procedure: as §4, §5, §1

[8] = system: pS2448mTOR, pS473Akt, pY/pT-ERK2 in MiaPaCa2 cells; assay: as above; assay type: cell-based, human; conditions: 0.1-5 nM; 4 days
Procedure: as §4, §5, §1

[9] = system: pS2448mTOR, pS473Akt, pY/pT-ERK2 in HMEC; assay: as above; assay type: cell-based, human; conditions: 0.1-5 nM; 4 days
Procedure: as §4, §5, §1

[10] = system: pS2152FLNA, FLNA-associated PTEN and PP2A in primary lung fibroblast cells; assay: pS2152FLNA and FLNA-associated PTEN and PP2A in anti-FLNA immunoprecipitate (Western blotting); assay type: cell-based, human; conditions: 0.1-5 nM; 4 days
Procedure: The effect of contact with Compound C0105 on the levels of pS^2152FLNA and FLNA-associated phosphatases, PTEN and PP2A subclasses was determined in primary lung fibroblast cells. Cells were treated with vehicle and 0.1-5 nM Compound C0105 for 4 days. Cells were washed, solubilized and the resultant cell lysate was immunoprecipitated with anti-FLNA. The levels of pS^2152FLNA and FLNA-associated phosphatases, PTEN and PP2A subclasses in the anti-FLNA immunoprecipitate were determined by Western blotting. The density of protein bands was measured by densitometric scanning. […] N=4. **p<0.05, *p<0.01 compared to vehicle (open bars). […]
as §1

[11] = system: MiaPaCa2 pancreatic cancer cell implants; assay: Xenograft tumor volume study

With `CN1CCC2(CC1)NCC(=O)N2Cc1ccccc1` [Compound C0105] the “mTOR, Akt and ERK activation (phosphorylated mTOR, Akt and ERK)” value (“mTOR, Akt and ERK activation” for short) [1] was “robustly reduces mTOR, Akt and ERK activation”, the “GTP-bound K-ras (active K-ras) level” value [2] was “reduced GTP-bound K-ras” and the “GTP-bound K-ras (active K-ras) level” value [3] was “reduced GTP-bound K-ras”. The “GTP-bound K-ras (active K-ras) level” value [4] was “reduced GTP-bound K-ras”, the “GTP-bound K-ras (active K-ras) level” value [5] was “reduced GTP-bound K-ras” and the “mTOR, Akt and ERK activation” value [6] was “has little effect on mTOR, Akt and ERK activation”. For the same compound, the “mTOR, Akt and ERK activation” value [7] was “has little effect on mTOR, Akt and ERK activation”, the “mTOR, Akt and ERK activation” value [8] was “has little effect on mTOR, Akt and ERK activation” and the “mTOR, Akt and ERK activation” value [9] was “has little effect on mTOR, Akt and ERK activation”. For the same compound, the “FLNA-associated PTEN and PP2A levels” value [10] was “does not affect”, the pS2152FLNA level [10] was “does not affect” and the Tumor volume ([11]; 1 mg/kg twice daily orally for 20 days) was “arrested growth”. The Tumor volume ([11]; 10 mg/kg twice daily orally for 20 days) was “shrank tumors” and the “Vasculature of tumor masses” value ([11]; 1 or 10 mg/kg twice daily orally) was “visibly reduced the vasculature of tumor masses”.
